Test results from ChEMBL document CHEMBL4725279, “Design and synthesis of peptide-based chimeric molecules to induce degradation of the estrogen and androgen receptors” (Bioorg Med Chem, 2020).

Tests used:
Assay type in all cases: cell-based
[1] = target: T1, Protein cereblon/Estrogen receptor (Homo sapiens) (UniProt P03372+Q96SW2); assay: Protac activity at CRBN/ERalpha in CRBN siRNA-transfected human MCF7 cells assessed as induction of ERalpha protein degradation by measuring ERalpha protein level at 20 uM incubated for 8 hrs by western blot analysis relative to lamin B
T1 sequence (P03372 whole entry, looked up): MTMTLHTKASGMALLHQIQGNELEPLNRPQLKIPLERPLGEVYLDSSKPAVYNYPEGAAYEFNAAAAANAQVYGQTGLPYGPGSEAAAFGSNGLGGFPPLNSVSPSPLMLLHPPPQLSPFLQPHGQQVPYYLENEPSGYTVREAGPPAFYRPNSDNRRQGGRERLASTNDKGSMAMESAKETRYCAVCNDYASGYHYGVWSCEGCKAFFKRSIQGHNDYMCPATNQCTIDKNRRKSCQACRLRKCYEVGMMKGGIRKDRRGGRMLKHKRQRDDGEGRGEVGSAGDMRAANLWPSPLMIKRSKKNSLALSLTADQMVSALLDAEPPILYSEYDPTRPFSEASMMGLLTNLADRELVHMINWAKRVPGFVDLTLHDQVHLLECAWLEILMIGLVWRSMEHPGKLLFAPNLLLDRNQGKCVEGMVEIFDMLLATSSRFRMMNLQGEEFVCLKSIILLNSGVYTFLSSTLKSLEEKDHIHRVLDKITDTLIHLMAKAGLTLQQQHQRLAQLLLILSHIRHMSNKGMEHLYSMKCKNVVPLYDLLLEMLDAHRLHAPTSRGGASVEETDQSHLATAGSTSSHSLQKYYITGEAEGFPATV
T1 sequence (Q96SW2 whole entry, looked up): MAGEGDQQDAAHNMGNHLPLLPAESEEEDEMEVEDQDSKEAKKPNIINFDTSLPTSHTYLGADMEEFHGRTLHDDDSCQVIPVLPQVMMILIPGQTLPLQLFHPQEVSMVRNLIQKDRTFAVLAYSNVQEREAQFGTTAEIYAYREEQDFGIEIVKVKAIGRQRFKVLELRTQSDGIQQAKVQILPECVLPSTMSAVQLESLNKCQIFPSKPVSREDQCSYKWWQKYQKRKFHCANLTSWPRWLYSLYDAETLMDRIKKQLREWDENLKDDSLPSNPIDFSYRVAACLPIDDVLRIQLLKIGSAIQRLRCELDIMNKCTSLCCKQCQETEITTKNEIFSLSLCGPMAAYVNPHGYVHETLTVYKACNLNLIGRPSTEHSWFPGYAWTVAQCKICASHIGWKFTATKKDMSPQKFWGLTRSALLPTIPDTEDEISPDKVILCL

[2] = target: T2, Protein cereblon/Androgen receptor (Homo sapiens) (UniProt P10275+Q96SW2); assay: Protac activity at CRBN/AR in human MCF7 cells assessed as induction of AR protein degradation by measuring AR protein level at 10 uM incubated for 8 hrs by western blot analysis relative to lamin B
T2 sequence (P10275 whole entry, looked up): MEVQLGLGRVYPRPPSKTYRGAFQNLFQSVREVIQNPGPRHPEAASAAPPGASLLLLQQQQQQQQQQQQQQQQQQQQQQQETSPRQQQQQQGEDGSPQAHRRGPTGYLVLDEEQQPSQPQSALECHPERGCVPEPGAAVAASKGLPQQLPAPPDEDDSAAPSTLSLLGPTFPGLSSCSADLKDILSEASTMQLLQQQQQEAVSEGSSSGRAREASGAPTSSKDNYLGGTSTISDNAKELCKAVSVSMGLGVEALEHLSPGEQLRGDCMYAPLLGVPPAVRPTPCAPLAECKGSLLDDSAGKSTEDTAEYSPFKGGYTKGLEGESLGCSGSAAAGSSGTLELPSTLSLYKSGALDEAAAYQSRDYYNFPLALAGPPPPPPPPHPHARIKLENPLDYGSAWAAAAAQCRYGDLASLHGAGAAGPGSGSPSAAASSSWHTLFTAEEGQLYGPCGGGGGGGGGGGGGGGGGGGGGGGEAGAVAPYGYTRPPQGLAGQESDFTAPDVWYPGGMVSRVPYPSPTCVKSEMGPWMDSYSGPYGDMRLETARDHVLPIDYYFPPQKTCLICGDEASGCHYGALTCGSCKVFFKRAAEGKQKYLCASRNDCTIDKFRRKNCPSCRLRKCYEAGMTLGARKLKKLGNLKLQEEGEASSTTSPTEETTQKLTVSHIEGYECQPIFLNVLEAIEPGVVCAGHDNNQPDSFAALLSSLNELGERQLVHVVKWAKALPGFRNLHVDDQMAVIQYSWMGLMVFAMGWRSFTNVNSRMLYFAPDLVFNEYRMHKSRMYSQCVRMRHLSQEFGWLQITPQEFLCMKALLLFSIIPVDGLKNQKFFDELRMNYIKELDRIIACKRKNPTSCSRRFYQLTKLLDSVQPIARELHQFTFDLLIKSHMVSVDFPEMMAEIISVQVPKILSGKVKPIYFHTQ
T2 sequence (Q96SW2 whole entry, looked up): as the sequence (Q96SW2 whole entry, looked up) above

[3] = target: T3, Protein cereblon/Aryl hydrocarbon receptor (Homo sapiens, UniProt P35869+Q96SW2); assay: Protac activity at CRBN/AhR in human MCF7 cells assessed as induction of AhR protein degradation by measuring AhR protein level at 20 uM incubated for 8 hrs in presence of proteasome inhibitor, MG132 by western blot analysis relative to lamin B; details: mcf7, 8 h
T3 sequence (P35869 whole entry): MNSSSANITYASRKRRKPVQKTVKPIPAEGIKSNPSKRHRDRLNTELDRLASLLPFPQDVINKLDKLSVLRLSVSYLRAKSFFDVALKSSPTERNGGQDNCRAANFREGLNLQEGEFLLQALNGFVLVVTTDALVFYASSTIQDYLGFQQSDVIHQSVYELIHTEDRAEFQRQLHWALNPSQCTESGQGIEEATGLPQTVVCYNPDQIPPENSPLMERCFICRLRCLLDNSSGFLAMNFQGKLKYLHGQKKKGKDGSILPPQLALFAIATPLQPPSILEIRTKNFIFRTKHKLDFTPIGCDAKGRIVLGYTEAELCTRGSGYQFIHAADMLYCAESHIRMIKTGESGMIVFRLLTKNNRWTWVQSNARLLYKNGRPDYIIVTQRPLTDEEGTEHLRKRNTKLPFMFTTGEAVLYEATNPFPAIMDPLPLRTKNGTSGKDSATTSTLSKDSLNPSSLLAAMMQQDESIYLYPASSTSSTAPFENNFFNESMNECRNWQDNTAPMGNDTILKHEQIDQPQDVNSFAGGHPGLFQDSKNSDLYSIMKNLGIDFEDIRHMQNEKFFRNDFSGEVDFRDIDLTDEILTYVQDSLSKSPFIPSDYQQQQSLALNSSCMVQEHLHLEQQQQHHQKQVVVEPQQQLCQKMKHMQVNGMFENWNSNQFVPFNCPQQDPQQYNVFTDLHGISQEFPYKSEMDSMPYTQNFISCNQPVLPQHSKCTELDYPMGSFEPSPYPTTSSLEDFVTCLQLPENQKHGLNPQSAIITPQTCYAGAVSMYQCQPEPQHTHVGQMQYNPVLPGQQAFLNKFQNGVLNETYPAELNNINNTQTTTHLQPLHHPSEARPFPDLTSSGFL
T3 sequence (Q96SW2 whole entry): as the sequence (Q96SW2 whole entry, looked up) above

[4] = target: T3, Protein cereblon/Aryl hydrocarbon receptor; assay: Protac activity at CRBN/AhR in human MCF7 cells assessed as induction of AhR protein degradation by measuring AhR protein level at 5 uM incubated for 8 hrs by western blot analysis relative to lamin B; details: mcf7, 8 h
[5] = target: T1, Protein cereblon/Estrogen receptor (Homo sapiens); assay: Protac activity at CRBN/ERalpha in human MCF7 cells assessed as induction of ERalpha protein degradation by measuring ERalpha protein level at 20 uM incubated for 24 hrs by western blot analysis relative to lamin B
[6] = target: T3, Protein cereblon/Aryl hydrocarbon receptor; assay: Protac activity at CRBN/AhR in human MCF7 cells assessed as induction of AhR protein degradation by measuring AhR protein level at 10 uM incubated for 24 hrs by western blot analysis relative to lamin B; details: mcf7, 24 h
[7] = target: T1, Protein cereblon/Estrogen receptor (Homo sapiens); assay: Protac activity at CRBN/ERalpha in human MCF7 cells assessed as induction of ERalpha protein degradation by measuring ERalpha protein level at 20 uM incubated for 8 hrs in presence of ubiquitin activating inhibitor MLN7243 by western blot analysis relative to lamin B
[8] = target: T3, Protein cereblon/Aryl hydrocarbon receptor; assay: Protac activity at CRBN/AhR in human MCF7 cells assessed as induction of AhR protein degradation by measuring AhR protein level at 5 uM incubated for 24 hrs by western blot analysis relative to lamin B; details: mcf7, 24 h
[9] = target: T1, Protein cereblon/Estrogen receptor (Homo sapiens); assay: Protac activity at CRBN/ERalpha in human MCF7 cells assessed as induction of ERalpha protein degradation by measuring ERalpha protein level at 10 uM incubated for 24 hrs by western blot analysis relative to lamin B
[10] = target: T3, Protein cereblon/Aryl hydrocarbon receptor; assay: Protac activity at CRBN/AhR in human MCF7 cells assessed as induction of AhR protein degradation by measuring AhR protein level at 20 uM incubated for 8 hrs in presence of ubiquitin activating inhibitor MLN7243 by western blot analysis relative to lamin B; details: mcf7, 8 h
[11] = target: T2, Protein cereblon/Androgen receptor (Homo sapiens); assay: Protac activity at CRBN/AR in human MCF7 cells assessed as induction of AR protein degradation by measuring AR protein level at 20 uM incubated for 24 hrs by western blot analysis relative to lamin B
[12] = target: T3, Protein cereblon/Aryl hydrocarbon receptor; assay: Protac activity at CRBN/AhR in human MCF7 cells assessed as induction of AhR protein degradation by measuring AhR protein level at 20 uM incubated for 8 hrs by western blot analysis relative to lamin B; details: mcf7, 8 h
[13] = target: T2, Protein cereblon/Androgen receptor (Homo sapiens); assay: Protac activity at CRBN/AR in human MCF7 cells assessed as induction of AR protein degradation by measuring AR protein level at 20 uM incubated for 8 hrs in presence of proteasome inhibitor, MG132 by western blot analysis relative to lamin B
[14] = target: T1, Protein cereblon/Estrogen receptor (Homo sapiens); assay: Protac activity at CRBN/ERalpha in human MCF7 cells assessed as induction of ERalpha protein degradation incubated for 8 to 24 hrs by western blot analysis; details: time hrs 8-24
[15] = target: T1, Protein cereblon/Estrogen receptor (Homo sapiens); assay: Protac activity at CRBN/ERalpha in human MCF7 cells assessed as induction of ERalpha protein degradation by measuring ERalpha protein level at 10 uM incubated for 8 hrs by western blot analysis relative to lamin B
[16] = target: T2, Protein cereblon/Androgen receptor (Homo sapiens); assay: Protac activity at CRBN/AR in human MCF7 cells assessed as induction of AR protein degradation by measuring AR protein level at 20 uM incubated for 8 hrs by western blot analysis relative to lamin B
[17] = target: T2, Protein cereblon/Androgen receptor (Homo sapiens); assay: Protac activity at CRBN/AR in human MCF7 cells assessed as induction of AR protein degradation by measuring AR protein level at 5 uM incubated for 8 hrs by western blot analysis relative to lamin B
[18] = target: T2, Protein cereblon/Androgen receptor (Homo sapiens); assay: Protac activity at CRBN/AR in CRBN siRNA-transfected human MCF7 cells assessed as induction of AR protein degradation by measuring AR protein level at 20 uM incubated for 8 hrs by western blot analysis relative to lamin B
[19] = target: T3, Protein cereblon/Aryl hydrocarbon receptor; assay: Protac activity at CRBN/AhR in human MCF7 cells assessed as induction of AhR protein degradation by measuring AhR protein level at 10 uM incubated for 8 hrs by western blot analysis relative to lamin B; details: mcf7, 8 h
[20] = target: T1, Protein cereblon/Estrogen receptor (Homo sapiens); assay: Protac activity at CRBN/ERalpha in human MCF7 cells assessed as induction of ERalpha protein degradation by measuring ERalpha protein level at 5 uM incubated for 8 hrs by western blot analysis relative to lamin B
[21] = target: T2, Protein cereblon/Androgen receptor (Homo sapiens); assay: Protac activity at CRBN/AR in human MCF7 cells assessed as induction of AR protein degradation by measuring AR protein level at 5 uM incubated for 24 hrs by western blot analysis relative to lamin B
[22] = target: T1, Protein cereblon/Estrogen receptor (Homo sapiens); assay: Protac activity at CRBN/ERalpha in human MCF7 cells assessed as induction of ERalpha protein degradation by measuring ERalpha protein level at 20 uM incubated for 8 hrs by western blot analysis relative to lamin B
[23] = target: T3, Protein cereblon/Aryl hydrocarbon receptor; assay: Protac activity at CRBN/AhR in human MCF7 cells assessed as induction of AhR protein degradation by measuring AhR protein level at 20 uM incubated for 24 hrs by western blot analysis relative to lamin B; details: mcf7, 24 h
[24] = target: T2, Protein cereblon/Androgen receptor (Homo sapiens); assay: Protac activity at CRBN/AR in human MCF7 cells assessed as induction of AR protein degradation by measuring AR protein level at 20 uM incubated for 8 hrs in presence of ubiquitin activating inhibitor MLN7243 by western blot analysis relative to lamin B
[25] = target: T1, Protein cereblon/Estrogen receptor (Homo sapiens); assay: Protac activity at CRBN/ERalpha in human MCF7 cells assessed as induction of ERalpha protein degradation by measuring ERalpha protein level at 20 uM incubated for 8 hrs in presence of proteasome inhibitor, MG132 by western blot analysis relative to lamin B
[26] = target: T2, Protein cereblon/Androgen receptor (Homo sapiens); assay: Protac activity at CRBN/AR in human MCF7 cells assessed as induction of AR protein degradation incubated for 8 to 24 hrs by western blot analysis; details: time hrs 8-24
[27] = target: T2, Protein cereblon/Androgen receptor (Homo sapiens); assay: Protac activity at CRBN/AR in human MCF7 cells assessed as induction of AR protein degradation by measuring AR protein level at 10 uM incubated for 24 hrs by western blot analysis relative to lamin B
[28] = target: T1, Protein cereblon/Estrogen receptor (Homo sapiens); assay: Protac activity at CRBN/ERalpha in human MCF7 cells assessed as induction of ERalpha protein degradation by measuring ERalpha protein level at 5 uM incubated for 24 hrs by western blot analysis relative to lamin B

Question: Which Activity [1] does the source give for CC[C@H](C)[C@@H]1NC(=O)[C@H](NC(=O)[C@@H](N)CCCCNC(=O)CCOCCOCCOCCOCCOCCNc2cccc3c2C(=O)N(C2CCC(=O)NC2=O)C3=O)CSSC[C@@H](C(=O)N[C@@H](CCCNC(=N)N)C(=O)N[C@@H](CC(C)(C)C)C(=O)N[C@@H](CC(C)C)C(=O)N[C@@H](CCC(N)=O)C(=O)NCC(=O)NCC(=O)NCC(=O)N[C@@H](CCCNC(=N)N)C(=O)N[C@@H](CCCNC(=N)N)C(=O)N[C@@H](CCCNC(=N)N)C(=O)N[C@@H](CCCNC(=N)N)C(=O)N[C@@H](CCCNC(=N)N)C(=O)N[C@@H](CCCNC(=N)N)C(=O)N[C@@H](CCCNC(=N)N)C(N)=O)NC(=O)[C@H](CC(C)C)NC1=O (stereo partly drawn) here?
Answer: Its Activity is 93%.

Question: And the Activity [2]?
Answer: The Activity was 80%.

Question: And the Activity [3]?
Answer: Its Activity is 123%.

Question: And the Activity [4]?
Answer: Its Activity is 124%.

Question: And the Activity [5]?
Answer: The Activity was 51%.

Question: What about the Activity [6] of the same molecule?
Answer: The Activity was 111%.

Question: And the Activity [7]?
Answer: Its Activity is 117%.

Question: And the Activity [8]?
Answer: The Activity was 101%.

Question: And the Activity [9]?
Answer: Its Activity is 64%.

Question: What about the Activity [10] of the same molecule?
Answer: The Activity was 107%.

Question: And the Activity [11]?
Answer: Its Activity is 79%.

Question: And the Activity [12]?
Answer: The Activity was 115%.

Question: What about the Activity [13] of the same molecule?
Answer: The Activity was 92%.

Question: What about the Activity [14] of the same molecule?
Answer: Its Activity is “Dose-dependent effect”.

Question: And the Activity [15]?
Answer: The Activity was 85%.

Question: What about the Activity [16] of the same molecule?
Answer: The Activity was 51%.

Question: And the Activity [17]?
Answer: Its Activity is 97%.

Question: What about the Activity [18] of the same molecule?
Answer: The Activity was 93%.

Question: What about the Activity [19] of the same molecule?
Answer: The Activity was 123%.

Question: What about the Activity [20] of the same molecule?
Answer: Its Activity is 108%.

Question: And the Activity [21]?
Answer: Its Activity is 84%.

Question: And the Activity [22]?
Answer: The Activity was 57%.

Question: What about the Activity [23] of the same molecule?
Answer: The Activity was 133%.

Question: What about the Activity [24] of the same molecule?
Answer: The Activity was 119%.

Question: What about the Activity [25] of the same molecule?
Answer: Its Activity is 78%.

Question: What about the Activity [26] of the same molecule?
Answer: Its Activity is “Dose-dependent effect”.

Question: And the Activity [27]?
Answer: Its Activity is 89%.

Question: And the Activity [28]?
Answer: The Activity was 85%.
